Measurements reported in patent US10208034B2, “Quinoline derivative” (ONO PHARMACEUTICAL CO., LTD., priority 2014, dated 2019).

Columns and labels:
[1] = target: T1, Ba/F3 Axl (Homo sapiens, UniProt P30530); assay: Proliferation suppression rate using mouse pro-B cell line (Ba/F3 Axl) stably expressing Axl (CellTiter-Glo); type: cell-based; settings: Ba/F3 Axl cells, 48 hours, read-out: IC50 value of proliferation suppression, Ba/F3 Axl
T1 sequence (P30530 1-894): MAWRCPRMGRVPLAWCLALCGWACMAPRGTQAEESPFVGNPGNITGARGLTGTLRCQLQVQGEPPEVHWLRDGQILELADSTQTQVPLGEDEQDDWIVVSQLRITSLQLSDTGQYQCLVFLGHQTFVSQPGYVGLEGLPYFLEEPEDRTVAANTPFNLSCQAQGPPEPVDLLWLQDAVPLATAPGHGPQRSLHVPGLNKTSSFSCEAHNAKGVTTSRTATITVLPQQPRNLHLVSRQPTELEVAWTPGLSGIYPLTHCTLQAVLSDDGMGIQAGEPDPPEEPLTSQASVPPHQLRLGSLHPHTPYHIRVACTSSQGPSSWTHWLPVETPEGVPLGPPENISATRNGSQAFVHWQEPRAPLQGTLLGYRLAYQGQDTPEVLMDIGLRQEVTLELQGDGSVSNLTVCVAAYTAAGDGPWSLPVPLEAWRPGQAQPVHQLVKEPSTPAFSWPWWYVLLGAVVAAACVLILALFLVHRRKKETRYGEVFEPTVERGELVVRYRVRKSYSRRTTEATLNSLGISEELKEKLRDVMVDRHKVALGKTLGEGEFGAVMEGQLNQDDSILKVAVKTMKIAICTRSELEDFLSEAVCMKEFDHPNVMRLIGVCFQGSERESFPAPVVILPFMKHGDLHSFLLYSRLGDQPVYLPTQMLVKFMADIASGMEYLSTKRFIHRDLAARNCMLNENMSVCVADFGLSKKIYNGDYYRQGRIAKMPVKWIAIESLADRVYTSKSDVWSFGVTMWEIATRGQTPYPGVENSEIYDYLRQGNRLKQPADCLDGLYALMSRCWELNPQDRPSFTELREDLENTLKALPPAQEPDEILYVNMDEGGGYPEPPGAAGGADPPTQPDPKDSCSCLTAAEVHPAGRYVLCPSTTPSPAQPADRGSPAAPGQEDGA
Description: A 0.1 mmol/L DMSO solution of the test compound was dispensed into a 96-well plate, and a 3-fold dilution series was prepared using DMSO. DMSO solutions of test compounds, having various concentrations, were further 500-fold diluted with a RPMI1640 medium (containing 10% HI-FBS, 1% penicillin) and a diluted solution of the test compound having […] with respect to the final concentration was prepared. In each well of the 96-well plate (BD Biosciences) for measurement, 50 μL of a RPMI medium was added to the Blank group, 50 μL of a RPMI medium containing 0.2% DMSO was added to the medium group, and 50 μL of the diluted solution of the test compound was added to the test compound group, respectively. Ba/F3 Axl was diluted with a medium to have a density of 2×10^5 cells/mL to prepare a cell suspension. In each well of the 96-well plate for measurement, 50 μL each of the RPMI medium was added to the Blank group, and 50 μL each of the cell suspension to the medium group and the test compound group, respectively, and the groups were stood still at 37° C. at 5% CO2 for 48 hours. After standing still, Relative Light Unit (RLU) was measured by using CELLTITER-GLO (registered trademark) LUMINESCENT CELL VIABILITY ASSAY (Promega). The measurement was carried out according to the attached instruction. To each well, 100 μL each of light-emitting solution was added. The plate was stirred at room temperature for 3 min and then stool still at room temperature with light shielded for 10 min, and RLU was measured by using Microplate Reader (SpectraMax M5e, Molecular Devices). The average values of RLU of the Blank group and the medium group were respectively calculated, and the proliferation suppression rate of the test compound group was calculated. Proliferation suppression rate (%)={1−(RLU of test compound group−A)/(B−A)}×100 [Math. 2] A: average value of RLU of Blank group B: average value of RLU of medium group
A value of 50% inhibition rate (IC50 value) of the test compound was calculated from the inhibition curve based on the inhibition rate in each concentration of the test compound.

[2] = target: T2, Axl enzyme (Homo sapiens, UniProt P30530); assay: Measurement of Axl inhibitory activity (LanthaScreen TR-FRET, in vitro test); type: biochemical; settings: Fluorescein-Poly GT substrate
T2 sequence (P30530 26-894): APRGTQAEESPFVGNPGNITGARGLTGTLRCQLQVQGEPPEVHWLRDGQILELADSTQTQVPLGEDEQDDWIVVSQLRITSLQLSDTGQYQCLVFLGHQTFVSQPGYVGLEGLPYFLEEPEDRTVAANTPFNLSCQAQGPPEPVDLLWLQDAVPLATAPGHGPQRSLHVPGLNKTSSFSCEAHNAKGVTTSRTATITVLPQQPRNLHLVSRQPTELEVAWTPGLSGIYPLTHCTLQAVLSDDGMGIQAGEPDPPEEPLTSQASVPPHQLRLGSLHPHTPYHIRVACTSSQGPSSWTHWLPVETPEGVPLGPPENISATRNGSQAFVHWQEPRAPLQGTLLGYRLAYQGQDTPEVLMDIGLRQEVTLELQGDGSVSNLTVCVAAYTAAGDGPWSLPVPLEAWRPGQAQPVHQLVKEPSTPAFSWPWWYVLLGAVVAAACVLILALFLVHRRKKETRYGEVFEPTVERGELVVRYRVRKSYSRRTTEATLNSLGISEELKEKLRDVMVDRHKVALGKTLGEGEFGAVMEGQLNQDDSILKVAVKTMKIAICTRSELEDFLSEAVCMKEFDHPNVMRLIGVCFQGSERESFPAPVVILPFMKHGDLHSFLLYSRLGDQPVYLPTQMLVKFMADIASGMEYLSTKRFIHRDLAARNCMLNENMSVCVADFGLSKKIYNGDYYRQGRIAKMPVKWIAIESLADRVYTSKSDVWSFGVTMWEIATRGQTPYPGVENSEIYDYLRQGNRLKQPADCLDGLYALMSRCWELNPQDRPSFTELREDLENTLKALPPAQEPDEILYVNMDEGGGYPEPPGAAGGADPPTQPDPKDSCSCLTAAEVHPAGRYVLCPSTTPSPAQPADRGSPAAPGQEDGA
Description: Axl enzyme inhibitory activity was measured by using LanthaScreen (registered trademark) system (Invitrogen) based on the attached instruction. The reagents used are shown below.
Reaction buffer solution: a solution containing 50 mmol/L HEPES (pH7.5), 0.01% Brij35, 10 mmol/L MgCl2 and 1 mmol/L EGTA was prepared by using purified water.
Test substance solution: a solution containing a test compound of 5-fold concentration with respect to the final concentration was prepared by 20-fold diluting a DMSO solution of test compound of each concentration with the reaction buffer solution.
Enzyme solution: a solution containing 400 ng/mL Axl enzyme was prepared by using the reaction buffer solution.
Substrate solution: a solution containing 45 μmol/L ATP and 500 nmol/L Fluorescein-Poly GT (Invitrogen) was prepared by using the reaction buffer solution.
Detection solution: a solution containing 20 mM EDTA and 4 nM PY20 (Invitrogen) was prepared by using Dilution B (Invitrogen).
A 10 mmol/L DMSO solution of the test compound was dispensed into a 96-well plate (Nunc), and, furthermore, a 3-fold dilution series was prepared using DMSO. In each well of the 96-well plate for measurement, 5 μL each of the reaction buffer solution containing DMSO was added to a Blank group and a medium group, and 5 μL of the test substance solution was added to the test substance group, respectively. Next, 10 μL/well of the reaction buffer solution was added to the Blank group, and 10 μL/well each of the enzyme solution was added to the medium group and the test compound group, followed by stirring at room temperature for 10 min. After the completion of stirring, 10 μL each of the substrate solution was added into each well, followed by stirring at room temperature with light shielded for one hour. After the completion of reaction, 25 μL each of the detection solution was added to each well, and stood still at room temperature with light shielded for 30 min. After standing sill, fluorescence intensity at 520 nm and 495 nm at the time of irradiation with exciting light of 340 nm was measured by using Analyst GT (Molecular Devices). The phosphorylation of the artificial substrate was quantified by Time-resolved Fluorescence Resonance Energy Transfer (TR-FRET). TR-FRET ratio was calculated by dividing 520 nm fluorescence signal by 495 nm fluorescence signal for each well, and the inhibition rate (%) in the test compound group was calculated based on the following mathematical formula. Inhibition rate (%)=[1−(TR-FRET ratio of test compound group−A)/(B−A)×100 [Math. 1] A: average value of TR-FRET ratios of Blank group B: average value of TR-FRET ratios of medium group
Values of 50% inhibition rate (IC50 values) of the test compound were calculated from the inhibition curve based on the inhibition rate of the test compounds in each concentration.

[3] = target: KDR kinase (Homo sapiens, UniProt P35968); assay: Evaluation of kinase selectivity (KDR kinase IC50 versus Axl IC50, in vitro test); type: biochemical; settings: Axl selective inhibitory activity with respect to KDR kinase, ratio of IC50 values
Description: Similar to Biological Example 1, values of 50% inhibition rate (IC50 value) with respect to the KDR kinase of the test compound was measured. The Axl selective inhibitory activity of the test compound with respect to KDR kinase was calculated based on the above-mentioned ratio of the IC50 values. As the test compounds, for the compounds of the present invention, the compounds of Examples 21, 42, 66, and 28 were used, and for the comparative compounds, the compound of Example 74 (Comparative compound B) and the compound of Example 92 (Comparative compound C) described in Patent Literature 5, having the following structure, were used.

Sequence of KDR kinase (P35968 20-1356): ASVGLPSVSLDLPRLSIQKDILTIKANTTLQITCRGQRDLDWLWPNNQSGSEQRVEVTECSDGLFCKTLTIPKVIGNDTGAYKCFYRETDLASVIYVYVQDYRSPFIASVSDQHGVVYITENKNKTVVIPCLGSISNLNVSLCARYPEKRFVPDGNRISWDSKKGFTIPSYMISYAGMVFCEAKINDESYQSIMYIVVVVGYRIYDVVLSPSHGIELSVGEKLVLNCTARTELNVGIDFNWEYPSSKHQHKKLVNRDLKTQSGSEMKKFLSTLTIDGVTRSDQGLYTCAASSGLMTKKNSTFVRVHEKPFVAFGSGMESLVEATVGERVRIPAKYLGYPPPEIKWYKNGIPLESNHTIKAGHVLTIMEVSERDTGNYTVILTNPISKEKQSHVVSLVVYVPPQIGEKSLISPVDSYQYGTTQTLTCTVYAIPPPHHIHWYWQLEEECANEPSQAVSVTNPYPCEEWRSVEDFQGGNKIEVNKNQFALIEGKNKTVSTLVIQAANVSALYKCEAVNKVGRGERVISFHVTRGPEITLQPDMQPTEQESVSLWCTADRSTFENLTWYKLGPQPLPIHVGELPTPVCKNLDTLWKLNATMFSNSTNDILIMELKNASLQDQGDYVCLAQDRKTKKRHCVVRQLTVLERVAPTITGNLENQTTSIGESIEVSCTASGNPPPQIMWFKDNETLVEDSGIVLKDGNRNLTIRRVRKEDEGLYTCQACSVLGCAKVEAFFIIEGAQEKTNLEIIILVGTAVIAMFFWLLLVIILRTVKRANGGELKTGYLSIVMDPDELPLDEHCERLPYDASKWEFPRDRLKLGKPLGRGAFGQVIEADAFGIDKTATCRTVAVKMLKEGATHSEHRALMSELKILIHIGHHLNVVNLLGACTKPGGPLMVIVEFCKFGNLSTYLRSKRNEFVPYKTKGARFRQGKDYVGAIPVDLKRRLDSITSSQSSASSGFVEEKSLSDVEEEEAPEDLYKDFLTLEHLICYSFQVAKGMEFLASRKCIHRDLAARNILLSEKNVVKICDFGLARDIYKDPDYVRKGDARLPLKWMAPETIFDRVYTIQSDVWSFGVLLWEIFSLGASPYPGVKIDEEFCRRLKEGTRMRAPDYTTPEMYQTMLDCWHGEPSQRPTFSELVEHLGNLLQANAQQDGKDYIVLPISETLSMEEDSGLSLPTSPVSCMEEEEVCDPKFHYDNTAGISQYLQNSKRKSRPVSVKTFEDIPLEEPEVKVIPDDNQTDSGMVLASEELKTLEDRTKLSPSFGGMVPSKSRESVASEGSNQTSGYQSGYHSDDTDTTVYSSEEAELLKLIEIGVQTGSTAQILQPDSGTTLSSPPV

Row | SMILES | GI50 [1] | IC50 [2] | KDR [IC50]/Ax1 [IC50] [3]
1 | COc1cc2nccc(Oc3ccc(NC(=O)c4cc5ccccc5[nH]c4=O)cc3)c2cc1OC [Comparative compound A, reference compound] | > 10000 nM | > 10000 nM | 
2 | COc1cc2c(Oc3ccc(NC(=O)c4cccc5cccnc45)cc3F)ccnc2cc1OCCCN1CCOCC1 [Comparative compound B, reference compound] |  |  | about 0.2 times

More lines, now with the values ahead:

Row | GI50 [1] | IC50 [2] | KDR [IC50]/Ax1 [IC50] [3] | SMILES
3 |  |  | about 28 times | COc1cc2c(Oc3ccc(NC(=O)c4ccnn(-c5ccc(F)cc5)c4=O)cn3)ccnc2cc1OCCCN1CCOCC1 [Comparative compound C, reference compound]
4 | 0.47 nM | 1.5 nM |  | CC#CC(=O)N1CCc2cc(C(=O)Nc3ccc(Oc4ccnc5cc(OC)c(OC)cc45)cn3)c(=O)n(-c3ccccc3)c2C1 [Example 36, 7-(2-butynoyl)-N-{5-[(6,7-dimethoxy-4-quinolinyl)oxy]-2-pyridinyl}-2-oxo-1-phenyl-1,2,5,6,7,8-hexahydro-1,7-naphthyridine-3-carboxamide]
5 | 0.76 nM | 4 nM |  | COc1cc2nccc(Oc3ccc(NC(=O)c4cc5ccc(N)cc5n(-c5ccccc5)c4=O)nc3)c2cc1OC [Example 73, 7-amino-N-{5-[(6,7-dimethoxy-4-quinolinyl)oxy]-2-pyridinyl}-2-oxo-1-phenyl-1,2-dihydro-3-quinolinecarboxamide]
